# What was measured:
# [1] = test system: MALME-3M melanoma cell line; test: Antibody staining and flow cytometry (intracellular Melan-A/MART-1, gp100, TRP-2; surface MHC Class I); type: cell-based, human; settings: for MHC Class I, geometric mean of surface staining (W6/32): MALME, three days, IFN-β 5000 Units/ml
# Method: (§1) Cells were fixed with 1% formaldehyde, permeabilized with 0.1% saponin, stained with monoclonal antibodies to melanocyte antigens. Antibodies were obtained with specificity for: MART-1 from Vector Labs (Burlingame, Calif.); gp100 HMB45 from DakoCytomation (Carpinteria, Calif.) and then visualized with goat anti-mouse FITC-conjugated secondary antibody from Invitrogen (Fredrick, Md.). The level of EGFP was determined by flow cytometry of unfixed cells that were washed and resuspended in 1×PBS.
# (§2) Cells were plated at a density of 1×10^5 in 1 ml of medium in a 24-well plate and cultured for varying times as indicated in results. […] After incubation, cells were collected by trypsinization and then evaluated by flow cytometry.
# (§3) Intracellular staining and flow cytometric analyses of cytoplasmic Melan-A/MART-1, and gp100 expression were performed as described previously. Cells were fixed with 1% formaldehyde, permeabilized with 0.1% saponin, stained with monoclonal antibodies to melanocyte antigens. Antibodies were obtained with specificity for: Melan-A/MART-1 from Vector Labs (Burlingame, Calif.); gp100/HMB45 from DakoCytomation (Carpinteria, Calif.) and then visualized with goat anti-mouse FITC-conjugated secondary antibody from Invitrogen (Frederick, Md.). The level of EGFP was determined by flow cytometry of unfixed cells washed and resuspended in 1×PBS. Surface staining of MHC Class I was carried out using the antibody W6/32 on cells harvested with Cell Stripper from MediaTech Inc. (Manassas, Va.) and carried out on ice.
# A375 melanoma cell line = test: as above; type: cell-based, human
# Method: as §1, §2, §3
# (§4) Cell were seeded at 1×10^6 cells in a T25 flask with 10 ml of media for the 4 day IFN-beta pre-treatments. Cells were then harvested and plated in 24 well plate at 1×10^5 cells per well in 1 ml of media for 3 day treatments.
# (§5) For surface staining of HLA Class I and II antigens, cells were harvested using CellStripper™ from Mediatech (Manassas, Va.). All staining steps were performed on ice. Following a first incubation with antibody to Class I (W6/32) or Class II (L243) for 30 minutes. Stained cells were washed twice with cold PBS and then stained with a goat anti-mouse FITC secondary antibody to allow for quantitative analysis by flow cytometry. For evaluation of cytoplasmic antigens, including Melan-A/MART-1 and gp100, cells were first fixed in paraformaldehyde and permeabilized with saponin as previously described. Staining for cytoplasmic antigens was carried out at room temperature (22° C.).
# MUX melanoma cell line = test: as above; type: cell-based, human
# Method: as §1, §2, §3, §4, §5
# U-87 MG glioma cell line = test: Antibody staining and flow cytometry (intracellular gp100; surface MHC Class I); type: cell-based, human; settings: U-87 MG; 3 days; IFN-beta 5000 Units/ml, 17-AEP 0.5, PU-H71 0.3, CCT018159 5.0 μg/ml
# Method: as §1, §2, §3
# [2] = test system: B16 murine melanoma cell line; test: Antibody staining and flow cytometry (intracellular gp100, TRP-2; surface Class I with H2kb antibody); type: cell-based, mouse; settings: 3 days, 17-AEP 0.5, PU-H71 0.15, CCT018159 2.5 μg/ml
# Description: To further evaluate enhancement of immune recognition of cancer cells by inhibition of Hsp90 function, it was shown that a total of twelve different Hsp90 inhibitors were active in several molecular and cellular assays on a series of cell lines, including eleven human melanomas, the murine B16 melanoma, and two human gliomas. […] The melanomas all express varying levels of differentiation antigens Melan-A/MART-1, gp100 and TRP-2, as well as the MHC-Class I antigen (as evidenced by W6/32 antibody staining) that is required for T cell recognition of the tumor cells. Each of these antigens is enhanced by all of the Hsp90 inhibitors. […] Similar to the human counterparts, the B16 mouse tumor also can be induced to express enhanced antigen levels upon 3-day exposure to each of the Hsp90 inhibitors (Table 16). The mouse H-2 Class I antigen is likewise induced by the Hsp90 inhibitors.
# General culture conditions for cell propagation and the origins of most of the melanoma cell lines have been previously described. Melanoma cells were cultured in DMEM with 10% FBS. The glioma cell lines U87 MG and U118 MG were obtained from the American Type Culture Collection (ATCC). The B16 murine melanoma cell line was provided by Dr. Andrew Hurwitz and has been previously described. The T cell receptor (TCR)-negative Jurkat T cell line derivative J.RT3-T3.5 was obtained from ATCC. The construction of the J.RT3-T3.5 cell line expressing a Melan-A/MART-1 specific TCR has been described previously. T cells were cultured in RPMI with 10% FBS. IFN-beta-1a (Avonex) was obtained from Biogen-Idec (Cambridge, Mass.) and reconstituted according to the manufacturer's recommendations. The Hsp90 inhibitor radicicol was purchased from A.G. Scientific (San Diego, Calif.). Novobiocin was ordered from BioMol (Plymouth Meeting, Pa.). 17-DMAG was obtained from LC laboratories (Woburn, Mass.). 17-AEP-AP was purchased from InVivoGen (San Diego, Calif.). […] Gedunin, CCT018159, and celastrol were purchased from Tocris (Ellisville, Mo.). Selleck Chemicals (Houston, Tex.) provided NVP-AUY922 and BIIB021.
# Cells were plated at a density of 1×10^5 in 1 ml of medium in a 24-well plate and cultured for varying times as indicated in results. Typically, 3 days of culture in the presence of Hsp90 inhibitors was optimal for the functional studies performed. After incubation, cells were collected by trypsinization and then evaluated by flow cytometry.
# as §3
# [3] = MALME-3M, 3 days, IFN-beta 5000 Units/ml, 17-AEP 1.0, PU-H71 0.3, CCT018159 10.0 μg/ml
# [4] = 3 days, IFN-beta 5000 Units/ml, 17-AEP 0.5, PU-H71 0.15, CCT018159 2.5 μg/ml
# [5] = 4 day IFN-β pre-treatment (5000 Units/ml), then 3 days with fresh IFN-β and the labelled HSP90 inhibitor (label IFN-β: no inhibitor), 17-AEP 0.5, PU-H71 0.15, CCT018159 2.5
# [6] = 4 day IFN-β pre-treatment (5000 Units/ml), then 3 days without IFN-β with the labelled HSP90 inhibitor (label IFN-β: no inhibitor), 17-AEP 0.5, PU-H71 0.15, CCT018159 2.5
# [7] = single agent for 3 days, no IFN-β pre-treatment, IFN-β 5000 Units/ml, 17-AEP 0.5, PU-H71 […], CCT018159 2.5
# [8] = three days, IFN-β 5000 Units/ml, 17-AEP 0.5, PU-H71 […], CCT018159 2.5
# [9] = MUX, 3 days, IFN-beta 5000 Units/ml, 17-AEP 1.0, PU-H71 0.3, CCT018159 10.0 μg/ml
# [10] = MUX, 4 day IFN-β pre-treatment (5000 Units/ml), then 3 days with fresh IFN-β and the labelled HSP90 inhibitor (label IFN-β: no inhibitor), 17-AEP 1, PU-H71 0.3, CCT018159 10 mg/ml
# [11] = MUX, 4 day IFN-β pre-treatment (5000 Units/ml), then 3 days without IFN-β with the labelled HSP90 inhibitor (label IFN-β: no inhibitor), 17-AEP 1, PU-H71 0.3, CCT018159 10 mg/ml
# [12] = MUX, single agent for 3 days, no IFN-β pre-treatment, IFN-β 5000 Units/ml, 17-AEP 1 μg/ml, PU-H71 0.3 μg/ml, CCT018159 10 μg/ml
# [13] = MALME-3M (BRAF M/WT, NRAS WT), 3 days, 17-AEP 0.25, CCT018159 5.00, PU-H71 0.30 μg/ml
# [14] = MUX (BRAF M/M, NRAS WT), 3 days, 17-AEP 0.50, CCT018159 5.00, PU-H71 0.30 μg/ml
smiles,measurement,setting,value
CO[C@H]1/C=C\C=C(/C)C(=O)NC2=CC(=O)C(NCCN3CCCC3)=C(C[C@@H](C)C[C@H](OC)[C@H](O)[C@@H](C)/C=C(\C)[C@@H]1OC(N)=O)C2=O [17-AEP],"Class I, geometric mean of surface staining (W6/32)",[1]; [3],105
same,"MART-1, geometric mean of intracellular staining",[1]; [3],205
same,"TRP-2, geometric mean of intracellular staining",[1]; [3],256
same,"gp100, geometric mean of intracellular staining",[1]; [3],839
same,"MHC Class I, geometric mean of surface staining (W6/32)",[1],105
same,"Class I, geometric mean of surface staining (W6/32)",A375 melanoma cell line; [4],67
same,"MART-1, geometric mean of intracellular staining",A375 melanoma cell line; [4],11
same,"TRP-2, geometric mean of intracellular staining",A375 melanoma cell line; [4],31
same,"gp100, geometric mean of intracellular staining",A375 melanoma cell line; [4],22
same,"MHC Class I, geometric mean of surface staining (W6/32)",A375 melanoma cell line; [5],144
same,"MHC Class I, geometric mean of surface staining (W6/32)",A375 melanoma cell line; [6],90
same,"MHC Class I, geometric mean of surface staining (W6/32)",A375 melanoma cell line; [7],109
same,"MHC Class I, geometric mean of surface staining (W6/32)",A375 melanoma cell line; [8],67
same,"Class I, geometric mean of surface staining (W6/32)",MUX melanoma cell line; [9],219
same,"MART-1, geometric mean of intracellular staining",MUX melanoma cell line; [9],19
same,"TRP-2, geometric mean of intracellular staining",MUX melanoma cell line; [9],48
same,"gp100, geometric mean of intracellular staining",MUX melanoma cell line; [9],34
same,"MHC Class I, geometric mean of surface staining (W6/32)",MUX melanoma cell line; [10],615
same,"MHC Class I, geometric mean of surface staining (W6/32)",MUX melanoma cell line; [11],496
same,"MHC Class I, geometric mean of surface staining (W6/32)",MUX melanoma cell line; [12],286
same,"Class I, geometric mean of surface staining (W6/32)",U-87 MG glioma cell line,66
same,"gp100, geometric mean of intracellular staining",U-87 MG glioma cell line,51
same,"Class I, geometric mean of surface staining (H2kb)",[2],13
same,"TRP-2, geometric mean of intracellular staining",[2],288
same,"gp100, geometric mean of intracellular staining",[2],420
CCc1cc(-c2n[nH]c(C)c2-c2ccc3c(c2)OCCO3)c(O)cc1O [CCT018159],"HMB45, level of induction relative to untreated control cells",[1]; [13],3.63
same,"MART-1, level of induction relative to untreated control cells",[1]; [13],2.48
same,"Class I, fold increase relative to untreated control",[1]; [3],1.6 fold
same,"Class I, geometric mean of surface staining (W6/32)",[1]; [3],72
same,"MART-1, fold increase relative to untreated control",[1]; [3],2.5 fold
same,"MART-1, geometric mean of intracellular staining",[1]; [3],291
same,"TRP-2, fold increase relative to untreated control",[1]; [3],2.1 fold
same,"TRP-2, geometric mean of intracellular staining",[1]; [3],222
same,"gp100, fold increase relative to untreated control",[1]; [3],3.6 fold
same,"gp100, geometric mean of intracellular staining",[1]; [3],823
same,"MHC Class I, geometric mean of surface staining (W6/32)",[1],72
same,"Class I, fold increase relative to untreated control",A375 melanoma cell line; [4],1.9 fold
same,"Class I, geometric mean of surface staining (W6/32)",A375 melanoma cell line; [4],70
same,"MART-1, fold increase relative to untreated control",A375 melanoma cell line; [4],2.2 fold
same,"MART-1, geometric mean of intracellular staining",A375 melanoma cell line; [4],13
same,"TRP-2, fold increase relative to untreated control",A375 melanoma cell line; [4],2.3 fold
same,"TRP-2, geometric mean of intracellular staining",A375 melanoma cell line; [4],37
same,"gp100, fold increase relative to untreated control",A375 melanoma cell line; [4],2.1 fold
same,"gp100, geometric mean of intracellular staining",A375 melanoma cell line; [4],32
same,"MHC Class I, geometric mean of surface staining (W6/32)",A375 melanoma cell line; [5],181
same,"MHC Class I, geometric mean of surface staining (W6/32)",A375 melanoma cell line; [6],139
same,"MHC Class I, geometric mean of surface staining (W6/32)",A375 melanoma cell line; [7],119
same,"MHC Class I, geometric mean of surface staining (W6/32)",A375 melanoma cell line; [8],70
same,"HMB45, level of induction relative to untreated control cells",MUX melanoma cell line; [14],1.89
same,"MART-1, level of induction relative to untreated control cells",MUX melanoma cell line; [14],1.64
same,"Class I, fold increase relative to untreated control",MUX melanoma cell line; [9],1.7 fold
same,"Class I, geometric mean of surface staining (W6/32)",MUX melanoma cell line; [9],174
same,"MART-1, fold increase relative to untreated control",MUX melanoma cell line; [9],1.7 fold
same,"MART-1, geometric mean of intracellular staining",MUX melanoma cell line; [9],22
same,"TRP-2, fold increase relative to untreated control",MUX melanoma cell line; [9],1.0 fold
same,"TRP-2, geometric mean of intracellular staining",MUX melanoma cell line; [9],40
same,"gp100, fold increase relative to untreated control",MUX melanoma cell line; [9],1.5 fold
same,"gp100, geometric mean of intracellular staining",MUX melanoma cell line; [9],40
same,"MHC Class I, geometric mean of surface staining (W6/32)",MUX melanoma cell line; [10],599
same,"MHC Class I, geometric mean of surface staining (W6/32)",MUX melanoma cell line; [11],397
same,"MHC Class I, geometric mean of surface staining (W6/32)",MUX melanoma cell line; [12],265
same,"MHC Class I, geometric mean of surface staining (W6/32)","MUX melanoma cell line; MUX, three days, IFN-β 5000 Units/ml, 17-AEP 1 μg/ml, PU-H71 0.3 μg/ml, CCT018159 10 μg/ml",174
same,"Class I, fold increase relative to untreated control",U-87 MG glioma cell line,1.0 fold
same,"Class I, geometric mean of surface staining (W6/32)",U-87 MG glioma cell line,28
same,"gp100, fold increase relative to untreated control",U-87 MG glioma cell line,2.5 fold
same,"gp100, geometric mean of intracellular staining",U-87 MG glioma cell line,71
same,"Class I, fold increase relative to untreated control",[2],6.8 fold
same,"Class I, geometric mean of surface staining (H2kb)",[2],16
same,"TRP-2, fold increase relative to untreated control",[2],3.9 fold
same,"TRP-2, geometric mean of intracellular staining",[2],364
same,"gp100, fold increase relative to untreated control",[2],5.2 fold
same,"gp100, geometric mean of intracellular staining",[2],414
